Data: patent publication US20200352201A1, “METHOD OF VACUUM […] WITH PEROXYC[…] SOLUTIONS” (ZEE COMPANY, INC., priority 2019, published 2020)

What was measured:
[1] = Vacuum infusing boneless poultry parts, organoleptic shelf life of the ground product; settings: vacuum tumbled about 15 minutes at about -0.4 bar, stored at about 4° C., first failure of duplicates
Protocol: Samples of poultry in an amount of about 1 pound were prepared from boneless poultry parts. Each sample was provided in a vacuum container of a vacuum tumbler in the presence of the antimicrobial solution (peroxyacetic acid (“PAA”) or peroxylactic acid (“PLA”)) provided in Table 1, with the control subjected to the same volume of sterile water. The pressure was reduced in the vacuum tumbler to about −0.4 bar, and the contents were rotated in the vacuum-tumbler while under pressure for a period of time of about 15 minutes. Pressure was then returned to atmospheric pressure and the contents of the vacuum container were subjected to grinding and then stored in a sealed plastic bag at about 4° C. The ground product was evaluated daily for appearance and order until reaching failure by abnormal coloration and/or odor. The Control and each microbial concentration sample was performed in duplicate, with the first date of organoleptic failure for the duplicate samples reported in Table 1.

[2] = Vacuum infusing boneless beef parts, organoleptic shelf life of the ground product; settings: vacuum tumbled about 15 minutes at about -0.4 bar, stored at about 4° C., first failure of duplicates
Protocol: Samples of beef in an amount of about 1 pound were prepared from boneless beef parts. Each sample was provided in a vacuum container of a vacuum tumbler in the presence of the antimicrobial solution (peroxyacetic acid (“PAA”) or peroxylactic acid (“PLA”)) provided in Table 2, with the control subjected to the same volume of sterile water. The pressure was reduced in the vacuum tumbler to about −0.4 bar, and the contents were rotated in the vacuum-tumbler while under pressure for a period of time of about 15 minutes. Pressure was then returned to atmospheric pressure and the contents of the vacuum container were subjected to grinding and then stored in a sealed plastic bag at about 4° C. The ground product was evaluated daily for appearance and order until reaching failure by abnormal coloration and/or odor. The Control and each microbial concentration sample was performed in duplicate, with the first date of organoleptic failure for the duplicate samples reported in Table 1.

## CC(O)C(=O)OO (stereo not shown) [PLA, peroxylactic acid]
[1]; 100 ppm
  Days to Organoleptic Failure: 11 days
[1]; 250 ppm
  Days to Organoleptic Failure: 14 days
[1]; 500 ppm
  Days to Organoleptic Failure: 16 days
[1]; 1000 ppm
  Days to Organoleptic Failure: 19 days
[2]; 100 ppm
  Days to Organoleptic Failure: 11 days
[2]; 250 ppm
  Days to Organoleptic Failure: 13 days
[2]; 500 ppm
  Days to Organoleptic Failure: 15 days
[2]; 1000 ppm
  Days to Organoleptic Failure: 17 days

## peroxyacetic acid [PAA]
[1]; 100 ppm
  Days to Organoleptic Failure: 11 days
[1]; 250 ppm
  Days to Organoleptic Failure: 13 days
[1]; 500 ppm
  Days to Organoleptic Failure: 17 days
[1]; 1000 ppm
  Days to Organoleptic Failure: 19 days
[2]; 100 ppm
  Days to Organoleptic Failure: 11 days
[2]; 250 ppm
  Days to Organoleptic Failure: 13 days
[2]; 500 ppm
  Days to Organoleptic Failure: 15 days
[2]; 1000 ppm
  Days to Organoleptic Failure: 17 days
